Source: patent publication US20220079194A1, “EXTRUDATE FOOD COMPOSITIONS COMPRISING CULTIVATED ANIMAL CELLS AND METHODS OF PRODUCTION THEREOF” (GOOD Meat, Inc., priority 2020, published 2022)

Experiments:
C1F chicken cells = experiment: Alternative sugars as carbon source for C1F suspension cultures; format: cell-based; conditions: for viable cell density at peak: 3 g/L sugar from day 0, batch, day 3, 1.25% FBS
Experimental: We evaluated the impact of alternative sugars (mannose, fructose and galactose) on the growth and metabolism of an in-house C1F chicken cells grown in suspension cultures containing 1.25% FBS. Specific net growth rate (uN) and Specific glucose consumption rate (qGluc) or specific lactate production rate (qLac) were calculated according to equation 1 or 2 as disclosed in Example 12.
Suspension cultures as described herein were cultivated using 3 g/L of the respective sugars were added from day 0 and cultured in a batch mode up to day 3. On day 3 after sampling, an additional 3 g/L of each sugar was added to the respective flasks. By day 3, at the peak cell density, flasks that used glucose as carbon source had the highest viable cell density (˜2.805×10^6 cells/mL), followed by flasks with mannose (˜2.40×10^6 cells/mL), then fructose (1.935×10^6 cells/mL) and lastly galactose (0.915×10^6 cells/mL).
Since we observed that the C1F cells could utilize fructose as a carbon source, we evaluated the effect of different starting concentration of fructose. In one experiment, 6 g/L of fructose was added to one set of duplicate flasks from day 0, and 3 g/L of fructose added each to another set of duplicate flasks from day 0. In the flasks starting with 3 g/L of fructose, an additional 3 g/L of fructose was added on day 1 of one of the duplicates and day 2 of the other duplicate.
We next evaluated the effect of combining glucose, mannose and fructose on growth and lactate production. Using a design-of-experiment (DOE) approach, 17 batch shake flask runs were carried out evaluating varying combinations of concentrations of glucose, mannose and fructose as energy sources for suspension chicken C1F cells. The experimental design used included 3 factors (glucose, mannose and fructose) and 4 levels (0, 0.5, 1.5 and 3.0 g/L). By day 3, cells with the base carbon sources 3.0 glucose/0.5 fructose/0.5 mannose had the highest viable cell density (VCD) of 3.8×10^6 cell/mL, followed by 3.0 glucose/0.0 fructose/3.0 mannose and 3.0 glucose/3.0 fructose/3.0 mannose. […]

C1F cells [1] = experiment: Sodium oxamate treatment of C1F suspension culture (lactate, glucose, growth); format: cell-based, chicken
Experimental: […] cells were cultivated in suspension culture supplemented with 1.25% bovine serum. Different concentrations of sodium oxamate were tested: 1, 3, 5, 10, 30, 60, 100, and 200 mM, and production of lactate, glucose consumption, cell growth rates and cell density were measured. The specific rates were calculated using daily viable cell concentration and metabolite concentrations for the duration of the cell culture. Specific net growth rates (UN) were calculated as a change in VCD over a time interval t1 to t2 using equation (1): Specific glucose consumption rate (qGluc) or specific lactate production rate (qLac) were determined using equation (2), where P is glucose or lactate concentration: Viable cell density (VCD) and viability were determined by the trypan blue exclusion method using the Vi-cellTM (Beckman Coulter) from 1 mL daily samples taken from shake flask cell culture. Gas and pH values including metabolite (glucose, lactate glutamine, glutamate, ammonium) concentrations were measured using the Bioprofile Flex analyzer (Nova Biomedical). Osmolality was measured using the OsmoPro Multi-Sample Micro-Osmometer (Advanced Instruments) which employs the freezing point technology. To further examine if the effects of oxamate remained similar in cell culture with metabolic by-products already present, we passaged cells treated with 30 mM oxamate using a 1:3 (v/v) split with fresh media (1⁄3 of the volume of spent media and 2⁄3 of fresh media). Having been used in culture for several days, carried over media invariably contains residual amounts (carryover) of metabolites resultant from cell consumption.

C1F cells [2] = experiment: as above; format: cell-based, chicken; conditions: 10, 15, 20 and 30 mM, 3-day batch cell culture

Row | SMILES | viable cell density at peak (C1F chicken cells) | lactate accumulation, higher by day 3 (C1F chicken cells; 6 g/L from day 0 vs 3 g/L from day 0 plus 3 g/L later) | reduction in lactate production (C1F cells [1]; 10 mM, day 2, C1F-SCM batch shake flasks, vs control, p<0.05) | cell viability and osmolality of the media (C1F cells [1]; 30 mM) | specific glucose consumption (qGluc) (C1F cells [1]; 30 mM) | increase in maximum viable cell density (C1F cells [1]; 30 mM vs control) | ammonium accumulation (C1F cells [1]; 30 mM, between days 3 and 5, relative to non-treated control) | reduction in cumulative lactate production (C1F cells [1]; 30 mM, by day 5, vs control group) | peak viable cell density (C1F cells [1]; 30 mM, day 5, passaged 1:3 with spent media carryover) | lactate production (C1F cells [1]; 30, 60, 100 and 200 mM, 3-day batch culture) | lactate production vs control (C1F cells [1]; other concentrations tested (1, 3, 5 mM), day 2, C1F-SCM batch) | decrease in lactate production (C1F cells [2])
1 | O=C(CO)[C@@H](O)[C@H](O)[C@H](O)CO [fructose] | 1.935×10^6 cells/mL | 36% | – | – | – | – | – | – | – | – | – | –
2 | O=C[C@H](O)[C@@H](O)[C@@H](O)[C@H](O)CO [galactose] | 0.915×10^6 cells/mL | – | – | – | – | – | – | – | – | – | – | –
3 | NC(=O)C(=O)[O-].[Na+] [oxamate, sodium oxamate] | – | – | 28% | not compromised | decreased | ~44% | spiked out | ~23% | 2.79×10^6 cells/mL | concentration-dependent decrease | appreciable decrease in lactate production | about 52%
